Experimental data published in patent publication US6486149B2, “Composition comprising a crystallographically stable, amorphous cephalosporin and processes for the preparation thereof” (Meiji Seika Kaisha Ltd., priority 1998, dated 2002).
Converted amounts (≈) assume the structure as drawn.

Assay: Solubility in acidic water (pH 1.2) at 37° C. (Test Example 1)
Assay type: physicochemical
Conditions: acidic water (pH 1.2) containing HCl, simulated gastric fluid, thermodynamic from solid, acidic water (pH 1.2) containing about 1N HCl, stirred 2 hours, filtered through 1 μm membrane, read-out: solubility of Cefditoren pivoxil in acidic water
Description: The solid particles present in the composition of this invention were tested for the measurement of their water-solubility as shown in Test Example given hereinafter.
There was taken as a sample one gram of the yellow-colored powder (the composition of this invention), which was obtained in Example 6 above, and which consisted essentially of the particles as formed substantially from a homogeneous mixture comprising the amorphous substance of Cefditoren pivoxil and hydroxypropylmethyl cellulose, and in which the surface layer of said particles contained additionally hydroxypropyl cellulose. The sample so taken was placed in 250 ml of an acidic water (pH 1.2) containing about […] at 37° C. and stirred at 37° C. for 2 hours. The resulting aqueous solution was passed through a millipore (1 μm) membrane filter to remove the insoluble solid therefrom. The transparent aqueous solution here obtained, which contained Cefditoren pivoxil and the water-soluble cellulose derivatives above-mentioned as dissolved therein, was then measured in respect of the concentration of the Cefditoren pivoxil. […]

solubility at 2 h: ~0.4 mg/mL (≈ 644 µM)
Structure (SMILES): CO/N=C(\C(=O)NC1C(=O)N2C(C(=O)OCOC(=O)C(C)(C)C)=C(/C=C\c3scnc3C)CS[C@H]12)c1csc(N)n1 (stereo partly shown) [7-[(Z)-2-(2-aminothiazol-4-yl)-2-methoxyiminoacetamido]-3-[(Z)-2-(4-methylthiazol-5-yl)ethenyl]-3-cephem-4-carboxylic acid pivaloyloxymethyl ester]
